{
  "source": "patent US6355799B1",
  "about": "“Substituted benzene compounds, process for their preparation, and herbicidal and defoliant compositions containing them” (ISK Americas Incorporated, priority 1997, dated 2002)",
  "type_in_all_cases": "in vivo",
  "key": {"[1]": {"tested_on": "lambsquarters (Chenopodium album, CHEAL)", "assay": "Post-emerge test, greenhouse herbicide activity screening", "details": "post-emerge, 14 days after application, rating scale 0-100", "procedure,_shortened": "(§1)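 Herbicidal damage is scored 0 (none) to 100 (complete plant death) two weeks after a simulated field spray. Rates span 15–1000 g ai/ha, delivered in acetone at 187 l/ha. For post-emergence treatments, plants have 2–3 leaves and the spray carries 0.25% v/v non-ionic surfactant.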"}, "[2]": {"tested_on": "barnyardgrass (Echinochloa crus-galli, ECHCG)", "assay": "Post-emerge test, greenhouse herbicide activity screening", "details": "post-emerge, 14 days after application, rating scale 0-100", "procedure,_shortened": "as §1"}, "[3]": {"tested_on": "johnsongrass (Sorghum halepense, SORHA)", "assay": "Post-emerge test, greenhouse herbicide activity screening", "details": "post-emerge, 14 days after application, rating scale 0-100", "procedure,_shortened": "as §1"}, "[4]": {"tested_on": "velvetleaf (Abutilon theophrasti, ABUTH)", "assay": "Post-emerge test, greenhouse herbicide activity screening", "details": "post-emerge, 14 days after application, rating scale 0-100", "procedure,_shortened": "as §1"}, "[5]": {"tested_on": "large crabgrass (Digitaria sanguinalis, DIGSA)", "assay": "Post-emerge test, greenhouse herbicide activity screening", "details": "post-emerge, 14 days after application, rating scale 0-100", "procedure,_shortened": "as §1"}, "[6]": {"tested_on": "green foxtail (Setaria viridis, SETVI)", "assay": "Post-emerge test, greenhouse herbicide activity screening", "details": "post-emerge, 14 days after application, rating scale 0-100", "procedure,_shortened": "as §1"}, "[7]": {"tested_on": "redroot pigweed (Amaranthus retroflexus, AMARE)", "assay": "Post-emerge test, greenhouse herbicide activity screening", "details": "post-emerge, 14 days after application, rating scale 0-100", "procedure,_shortened": "as §1"}, "[8]": {"tested_on": "sicklepod (Cassia obtusifolia, CASOB)", "assay": "Post-emerge test, greenhouse herbicide activity screening", "details": "post-emerge, 14 days after application, rating scale 0-100", "procedure,_shortened": "as §1"}, "[9]": {"tested_on": "ivyleaf morningglory (Ipomoea hederacea, IPOHE)", "assay": "Post-emerge test, greenhouse herbicide activity screening", "details": "post-emerge, 14 days after application, rating scale 0-100", "procedure,_shortened": "as §1"}, "[10]": {"tested_on": "upland rice (Oryza sp., var. Tebonnet, RICE)", "assay": "Post-emerge test, crop safety", "details": "post-emerge, 14 days after application, rating scale 0-100", "procedure,_shortened": "(§2)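 Compounds in acetone were track-sprayed at 187 l/ha, 15–1000 g ai/ha, onto sandy loam pots. Pre-emerge seeds were sown one day before spraying, with surface watering afterwards. Post-emerge plants were at the 2–3 leaf stage and sprayed with 0.25% v/v non-ionic surfactant. Injury was rated 0–100 at 14 days.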"}, "[11]": {"tested_on": "field corn (Zea mays L., var. Dekalb 535, CORN)", "assay": "Post-emerge test, crop safety", "details": "post-emerge, 14 days after application, rating scale 0-100", "procedure,_shortened": "as §2"}, "[12]": {"tested_on": "lambsquarters (Chenopodium album, CHEAL)", "assay": "Pre-emerge test, greenhouse herbicide activity screening", "details": "rated 14 days after application, 0 = no damage, 100 = complete death", "procedure,_shortened": "as §2"}, "[13]": {"tested_on": "barnyardgrass (Echinochloa crus-galli, ECHCG)", "assay": "Pre-emerge test, greenhouse herbicide activity screening", "details": "rated 14 days after application, 0 = no damage, 100 = complete death", "procedure,_shortened": "as §2"}, "[14]": {"tested_on": "johnsongrass (Sorghum halepense, SORHA)", "assay": "Pre-emerge test, greenhouse herbicide activity screening", "details": "rated 14 days after application, 0 = no damage, 100 = complete death", "procedure,_shortened": "as §2"}, "[15]": {"tested_on": "velvetleaf (Abutilon theophrasti, ABUTH)", "assay": "Pre-emerge test, greenhouse herbicide activity screening", "details": "rated 14 days after application, 0 = no damage, 100 = complete death", "procedure,_shortened": "as §2"}, "[16]": {"tested_on": "large crabgrass (Digitaria sanguinalis, DIGSA)", "assay": "Pre-emerge test, greenhouse herbicide activity screening", "details": "rated 14 days after application, 0 = no damage, 100 = complete death", "procedure,_shortened": "as §2"}, "[17]": {"tested_on": "green foxtail (Setaria viridis, SETVI)", "assay": "Pre-emerge test, greenhouse herbicide activity screening", "details": "rated 14 days after application, 0 = no damage, 100 = complete death", "procedure,_shortened": "as §2"}, "[18]": {"tested_on": "sicklepod (Cassia obtusifolia, CASOB)", "assay": "Pre-emerge test, greenhouse herbicide activity screening", "details": "rated 14 days after application, 0 = no damage, 100 = complete death", "procedure,_shortened": "as §2"}, "[19]": {"tested_on": "ivyleaf morningglory (Ipomoea hederacea, IPOHE)", "assay": "Pre-emerge test, greenhouse herbicide activity screening", "details": "rated 14 days after application, 0 = no damage, 100 = complete death", "procedure,_shortened": "as §2"}, "[20]": {"tested_on": "redroot pigweed (Amaranthus retroflexus, AMARE)", "assay": "Pre-emerge test, greenhouse herbicide activity screening", "details": "rated 14 days after application, 0 = no damage, 100 = complete death", "procedure,_shortened": "as §1"}, "[21]": {"tested_on": "upland rice (Oryza sp., var. Tebonnet, RICE)", "assay": "Pre-emerge test, crop safety", "details": "rated 14 days after application, 0 = no damage, 100 = complete death", "procedure,_shortened": "(§3)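 Plants grown in 10 cm pots of sandy loam mix received acetone-dissolved compounds through a moving flat-fan nozzle. Doses ranged from 15 to 1000 g ai/ha. Pre-emerge pots were seeded one day earlier, post-emerge pots 8–21 days earlier. Fourteen days on, each pot was graded 0–100 for damage.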"}, "[22]": {"tested_on": "field corn (Zea mays L., var. Dekalb 535, CORN)", "assay": "Pre-emerge test, crop safety", "details": "rated 14 days after application, 0 = no damage, 100 = complete death", "procedure,_shortened": "as §3"}},
  "data": [
    {"smiles": "COc1c(Cl)cc(F)c(-n2c(=O)cc(C(F)(F)F)n(C)c2=O)c1NC(=O)C=Cc1ccc(Cl)cc1", "note": "[2-84]", "values": [
      {"measurement": "phytotoxicity rating CHEAL", "setting": "[1]; 63 g ai/ha", "result": 30},
      {"measurement": "phytotoxicity rating CHEAL", "setting": "[1]; 250 g ai/ha", "result": 80},
      {"measurement": "phytotoxicity rating ECHCG", "setting": "[2]; 63 g ai/ha", "result": 0},
      {"measurement": "phytotoxicity rating ECHCG", "setting": "[2]; 250 g ai/ha", "result": 0},
      {"measurement": "phytotoxicity rating SORHA", "setting": "[3]; 63 g ai/ha", "result": 0},
      {"measurement": "phytotoxicity rating SORHA", "setting": "[3]; 250 g ai/ha", "result": 0},
      {"measurement": "phytotoxicity rating ABUTH", "setting": "[4]; 63 g ai/ha", "result": 30},
      {"measurement": "phytotoxicity rating ABUTH", "setting": "[4]; 250 g ai/ha", "result": 100},
      {"measurement": "phytotoxicity rating DIGSA", "setting": "[5]; 63 g ai/ha", "result": 0},
      {"measurement": "phytotoxicity rating DIGSA", "setting": "[5]; 250 g ai/ha", "result": 0},
      {"measurement": "phytotoxicity rating SETVI", "setting": "[6]; 63 g ai/ha", "result": 30},
      {"measurement": "phytotoxicity rating SETVI", "setting": "[6]; 250 g ai/ha", "result": 0},
      {"measurement": "phytotoxicity rating AMARE", "setting": "[7]; 63 g ai/ha", "result": 80},
      {"measurement": "phytotoxicity rating AMARE", "setting": "[7]; 250 g ai/ha", "result": 100},
      {"measurement": "phytotoxicity rating CASOB", "setting": "[8]; 63 g ai/ha", "result": 20},
      {"measurement": "phytotoxicity rating CASOB", "setting": "[8]; 250 g ai/ha", "result": 100},
      {"measurement": "phytotoxicity rating IPOHE", "setting": "[9]; 63 g ai/ha", "result": 30},
      {"measurement": "phytotoxicity rating IPOHE", "setting": "[9]; 250 g ai/ha", "result": 70},
      {"measurement": "phytotoxicity rating RICE", "setting": "[10]; 63 g ai/ha", "result": 0},
      {"measurement": "phytotoxicity rating RICE", "setting": "[10]; 250 g ai/ha", "result": 20},
      {"measurement": "phytotoxicity rating CORN", "setting": "[11]; 63 g ai/ha", "result": 10},
      {"measurement": "phytotoxicity rating CORN", "setting": "[11]; 250 g ai/ha", "result": 10},
      {"measurement": "Pre-emerge Herbicidal Activity, phytotoxicity rating (0-100), CHEAL", "setting": "[12]; 63 g ai/ha", "result": 40},
      {"measurement": "Pre-emerge Herbicidal Activity, phytotoxicity rating (0-100), CHEAL", "setting": "[12]; 250 g ai/ha", "result": 100},
      {"measurement": "Pre-emerge Herbicidal Activity, phytotoxicity rating (0-100), ECHCG", "setting": "[13]; 63 g ai/ha", "result": 0},
      {"measurement": "Pre-emerge Herbicidal Activity, phytotoxicity rating (0-100), ECHCG", "setting": "[13]; 250 g ai/ha", "result": 0},
      {"measurement": "Pre-emerge Herbicidal Activity, phytotoxicity rating (0-100), SORHA", "setting": "[14]; 63 g ai/ha", "result": 0},
      {"measurement": "Pre-emerge Herbicidal Activity, phytotoxicity rating (0-100), SORHA", "setting": "[14]; 250 g ai/ha", "result": 0},
      {"measurement": "Pre-emerge Herbicidal Activity, phytotoxicity rating (0-100), ABUTH", "setting": "[15]; 63 g ai/ha", "result": 0},
      {"measurement": "Pre-emerge Herbicidal Activity, phytotoxicity rating (0-100), ABUTH", "setting": "[15]; 250 g ai/ha", "result": 80},
      {"measurement": "Pre-emerge Herbicidal Activity, phytotoxicity rating (0-100), DIGSA", "setting": "[16]; 63 g ai/ha", "result": "00"},
      {"measurement": "Pre-emerge Herbicidal Activity, phytotoxicity rating (0-100), DIGSA", "setting": "[16]; 250 g ai/ha", "result": 0},
      {"measurement": "Pre-emerge Herbicidal Activity, phytotoxicity rating (0-100), SETVI", "setting": "[17]; 63 g ai/ha", "result": 0},
      {"measurement": "Pre-emerge Herbicidal Activity, phytotoxicity rating (0-100), SETVI", "setting": "[17]; 250 g ai/ha", "result": 50},
      {"measurement": "Pre-emerge Herbicidal Activity, phytotoxicity rating (0-100), CASOB", "setting": "[18]; 63 g ai/ha", "result": 0},
      {"measurement": "Pre-emerge Herbicidal Activity, phytotoxicity rating (0-100), CASOB", "setting": "[18]; 250 g ai/ha", "result": 0},
      {"measurement": "Pre-emerge Herbicidal Activity, phytotoxicity rating (0-100), IPOHE", "setting": "[19]; 63 g ai/ha", "result": 0},
      {"measurement": "Pre-emerge Herbicidal Activity, phytotoxicity rating (0-100), IPOHE", "setting": "[19]; 250 g ai/ha", "result": 0},
      {"measurement": "Pre-emerge Herbicidal Activity, phytotoxicity rating (0-100), AMARE", "setting": "[20]; 63 g ai/ha", "result": 80},
      {"measurement": "Pre-emerge Herbicidal Activity, phytotoxicity rating (0-100), AMARE", "setting": "[20]; 250 g ai/ha", "result": 100},
      {"measurement": "Pre-emerge phytotoxicity rating (0-100), crop damage, RICE", "setting": "[21]; 63 g ai/ha", "result": 0},
      {"measurement": "Pre-emerge phytotoxicity rating (0-100), crop damage, RICE", "setting": "[21]; 250 g ai/ha", "result": 0},
      {"measurement": "Pre-emerge phytotoxicity rating (0-100), crop damage, CORN", "setting": "[22]; 63 g ai/ha", "result": 0},
      {"measurement": "Pre-emerge phytotoxicity rating (0-100), crop damage, CORN", "setting": "[22]; 250 g ai/ha", "result": 0}
    ]}
  ]
}
